These results are taken from US20200197320A1, “DRUG CARRIER AND DRUG DELIVERY SYSTEM THEREOF” (NATIONAL TSING HUA UNIVERSITY, priority 2018, published 2020).

The subject of this series is MDA-MB-231 human breast cancer cells. Description: Material cytotoxicity by MTT assay. The note with it: under the condition of the present disclosure, including products after UV irradiation. As for the experimental part: Then the drug delivery systems of Example 1 with different concentrations are tested for their cytotoxicity. […] The MDA-MB-231 human breast cancer cells are treated with 0.1, 1, 2, 5, 10 and 20 μg/mL of the drug delivery system of Example 1 for 6 hours, respectively, and then further incubated for another 24 hours. The cell viability is measured by the MTT assay.

For `OCc1ccc2ccc3cccc4ccc1c2c34` [pyrenemethanol], the “harm to the cells” value is listed as “not harmful”.
